Several values for one entry are separate records, joined by “and”; a condition that tells them apart may be missing. Equal entries are not always repeated.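 Where inhibition never reached the appropriate level, the endpoint shown equals the highest concentration tested. Otherwise, values were interpolated linearly from a five-concentration, 48-hour dose response in 96-well plates. GI50: concentration for 50% inhibition of growth. TGI: concentration producing complete growth inhibition.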

Some test systems named below: HT29 colon; IGROV1 ovarian; MALME-3M melanoma; NCI-H522 lung; NCI/ADR-RES ovarian; OVCAR-3 ovarian; SF-268 CNS; TK-10 renal; U251 CNS; UACC-257 melanoma.
Common to all, as to assay: NCI tumour cell line growth inhibition, 48 h

With `C[As](C)SCC(COC(=O)c1ccccc1)OC(=O)c1ccccc1` (stereo not drawn), the GI50 with HT29 colon was 0.302 µM; in the assay with IGROV1 ovarian it was 0.918 µM; with NCI-H522 lung it was 0.0836 µM; in the assay with NCI/ADR-RES ovarian, 0.152 µM; with SF-268 CNS, 0.344 µM; in the assay on TK-10 renal, 0.0159 µM. Besides, the GI50 with U251 CNS is 1.71 µM; in the assay with UACC-257 melanoma it was 0.066 µM. Besides, the TGI is 2.26 µM in the assay with HT29 colon; 17.1 µM in the assay on IGROV1 ovarian; 0.0345 µM in the assay on MALME-3M melanoma; 2.92 µM with NCI-H522 lung; 0.367 µM in the assay on NCI/ADR-RES ovarian; 0.023 µM in the assay on OVCAR-3 ovarian. The TGI in the assay with SF-268 CNS is 4.42 µM; with TK-10 renal, 0.126 µM; with U251 CNS, 6.67 µM; in the assay on UACC-257 melanoma, 1.51 µM.
In the case of `Nc1cc2[nH]c(=O)c3cc(Cl)ccc3c2cc1Cl`, the TGI in the assay on HT29 colon is > 100 µM; in the assay with IGROV1 ovarian, 23.5 µM; in the assay with MALME-3M melanoma it was 44.6 µM; in the assay on NCI-H522 lung, 33 µM; in the assay on NCI/ADR-RES ovarian, 86.1 µM; in the assay with OVCAR-3 ovarian it was 29.4 µM. The TGI with SF-268 CNS amounted to 45.4 µM; in the assay on TK-10 renal, 33.7 µM; in the assay on U251 CNS it was 26.1 µM; in the assay with UACC-257 melanoma, 53.4 µM.
Consider `COc1c(C)cnc(Cn2cnc3c(Cl)nc(N)nc32)c1C`, for which the GI50 was 0.0654 µM in the assay with HT29 colon; 0.455 µM in the assay on IGROV1 ovarian; 0.38 µM in the assay with MALME-3M melanoma; 0.261 µM in the assay with NCI-H522 lung; 0.509 µM in the assay with NCI/ADR-RES ovarian; 0.658 µM with OVCAR-3 ovarian. Also, the GI50 is 0.708 µM with SF-268 CNS, 0.0884 µM in the assay on TK-10 renal, 0.415 µM in the assay with U251 CNS and 0.297 µM in the assay with UACC-257 melanoma. Besides, the TGI with HT29 colon was > 100 µM; with IGROV1 ovarian it was > 100 µM; with MALME-3M melanoma, 58.3 µM; with NCI-H522 lung, 12.9 µM; with NCI/ADR-RES ovarian, > 100 µM; in the assay with OVCAR-3 ovarian, > 100 µM. In addition, the TGI in the assay on SF-268 CNS was > 100 µM; in the assay on TK-10 renal, > 100 µM; with U251 CNS it was > 100 µM; with UACC-257 melanoma it was 9.57 µM.
Regarding `CCCCc1ccc(C(N)=O)nc1`, the GI50 in the assay with HT29 colon, in the assay with IGROV1 ovarian, in the assay on MALME-3M melanoma, in the assay on NCI-H522 lung, in the assay on NCI/ADR-RES ovarian and in the assay with OVCAR-3 ovarian was > 100 µM each time. In addition, the GI50 in the assay with SF-268 CNS, in the assay with TK-10 renal, with U251 CNS and in the assay with UACC-257 melanoma was > 100 µM throughout. The TGI with HT29 colon, in the assay on IGROV1 ovarian, in the assay with MALME-3M melanoma, with NCI-H522 lung, with NCI/ADR-RES ovarian and with OVCAR-3 ovarian was > 100 µM in each case. The TGI in the assay on SF-268 CNS, in the assay with TK-10 renal, in the assay with U251 CNS and in the assay with UACC-257 melanoma was > 100 µM throughout.
In the case of `O=C(CN1C(=O)c2ccccc2C1=O)NC1(C(=O)O)CCCC1`, the TGI in the assay on HT29 colon, in the assay with IGROV1 ovarian, in the assay with MALME-3M melanoma, with NCI-H522 lung, in the assay on NCI/ADR-RES ovarian and in the assay on OVCAR-3 ovarian was > 100 µM in each case. For the same compound, the TGI in the assay with SF-268 CNS, with TK-10 renal, in the assay with U251 CNS and in the assay on UACC-257 melanoma was > 100 µM each time.
For the compound `O=C(NC(c1ccccc1)C(O)C(=O)OCc1ccc2c(c1)C(=O)c1ccccc1C2=O)c1ccccc1` (stereo not drawn), the TGI with HT29 colon was > 85.2 µM; with IGROV1 ovarian, 48.5 µM; in the assay with MALME-3M melanoma it was 37.9 µM; in the assay on NCI-H522 lung, 63.6 µM; in the assay on NCI/ADR-RES ovarian it was 33.9 µM; in the assay on OVCAR-3 ovarian, 34.6 µM. Further, the TGI is 70.1 µM in the assay on SF-268 CNS, 53.2 µM in the assay on TK-10 renal, 18.3 µM in the assay with U251 CNS and > 72 µM in the assay on UACC-257 melanoma.
For `CC(CCC/C=C/CCCN(C)C(=N)N)CC(C)C1OC(=O)C(C)C(O)/C=C/C(C)C(O)C(C)C(O)C(C)C(O)CCCC(O)CC2(O)OC(CC(OC(=O)CC(=O)O)CC(O)CC(O)C(C)C(O)/C=C/C=C/C1C)CC(O)C2O` (stereo not drawn), the GI50 was 1.76 µM and 3 µg/mL in the assay on HT29 colon; 2.51 µM and 3.12 µg/mL with IGROV1 ovarian; 2.37 µM and 2.57 µg/mL in the assay on MALME-3M melanoma; 2.38 µM and 2.79 µg/mL with NCI-H522 lung; 5.99 µM and 15.9 µg/mL in the assay on NCI/ADR-RES ovarian; 1.92 µM and 5.68 µg/mL in the assay with OVCAR-3 ovarian. In addition, the GI50 with SF-268 CNS is 2.76 µM and 6.7 µg/mL; in the assay with TK-10 renal, 1.98 µM and 10.3 µg/mL; in the assay on U251 CNS, 3.37 µM and 3.3 µg/mL; in the assay on UACC-257 melanoma, 2.16 µM and 1.98 µg/mL. Besides, the TGI in the assay with HT29 colon is 3.41 µM and 11.7 µg/mL; in the assay with IGROV1 ovarian, 5.01 µM and 12.4 µg/mL; with MALME-3M melanoma it was 5 µM and 11.7 µg/mL; with NCI-H522 lung, 10.5 µM and 12.9 µg/mL; with NCI/ADR-RES ovarian, 20.4 µM and 34.3 µg/mL; with OVCAR-3 ovarian, 3.42 µM and 15.1 µg/mL. The TGI was 7.24 µM and 16.5 µg/mL in the assay on SF-268 CNS; 4.17 µM and 21.4 µg/mL with TK-10 renal; 11.6 µM and 14.9 µg/mL in the assay with U251 CNS; 4.29 µM and 6.29 µg/mL in the assay with UACC-257 melanoma.
Turning to `C=C1C(=O)O[C@H]2[C@H]1CC/C(Cn1cc(CNC(=O)c3cc4ccccc4[nH]3)nn1)=C\CC[C@@]1(C)O[C@@H]21`, the GI50 with HT29 colon is 2.85 µM; with IGROV1 ovarian, 3.24 µM; in the assay on MALME-3M melanoma, 1.75 µM; in the assay with NCI-H522 lung, 0.921 µM; in the assay with NCI/ADR-RES ovarian, 69.3 µM; with OVCAR-3 ovarian, 2.12 µM. In addition, the GI50 is 7.26 µM in the assay with SF-268 CNS, 4.41 µM in the assay on TK-10 renal, 8.24 µM with U251 CNS and 4 µM in the assay on UACC-257 melanoma. In addition, the TGI with HT29 colon was 10.1 µM; in the assay on IGROV1 ovarian, 10.6 µM; with MALME-3M melanoma it was 3.55 µM; in the assay on NCI-H522 lung, 2.84 µM; in the assay with NCI/ADR-RES ovarian it was > 100 µM; with OVCAR-3 ovarian, 5.63 µM. Further, the TGI came out at 22.5 µM in the assay with SF-268 CNS, 15.2 µM in the assay on TK-10 renal, 21.8 µM in the assay with U251 CNS and 16 µM in the assay with UACC-257 melanoma.
Regarding `Cn1c(N)c(N=Nc2ccc(S(N)(=O)=O)cc2)c(=O)n(C)c1=O`, the TGI with HT29 colon, with IGROV1 ovarian, in the assay on MALME-3M melanoma, with NCI-H522 lung, with NCI/ADR-RES ovarian and in the assay on OVCAR-3 ovarian was > 100 µM throughout. The TGI in the assay on SF-268 CNS, in the assay on TK-10 renal, in the assay with U251 CNS and in the assay on UACC-257 melanoma was > 100 µM each time.
In the case of `CCN(CC)CCC(CNc1c2ccc(Cl)cc2nc2ccc(OC)cc12)c1ccccc1` (stereo not drawn), the GI50 in the assay with HT29 colon was 0.219 µM; in the assay on IGROV1 ovarian it was 1.21 µM; with MALME-3M melanoma it was 1.87 µM; in the assay on NCI-H522 lung it was 0.555 µM; with NCI/ADR-RES ovarian it was 1.28 µM; in the assay with OVCAR-3 ovarian, 1.71 µM. Moreover, the GI50 with SF-268 CNS was 1.33 µM; in the assay on TK-10 renal, 0.915 µM; in the assay with U251 CNS, 1.56 µM; with UACC-257 melanoma it was 2.01 µM. In addition, the TGI amounted to 0.664 µM in the assay with HT29 colon; 5.11 µM with IGROV1 ovarian; 3.56 µM with MALME-3M melanoma; 2.1 µM with NCI-H522 lung; 5.12 µM in the assay with NCI/ADR-RES ovarian; 4.7 µM with OVCAR-3 ovarian. The TGI with SF-268 CNS came to 3.8 µM; in the assay on TK-10 renal it was 2.8 µM; in the assay with U251 CNS, 3.21 µM; in the assay on UACC-257 melanoma it was 3.63 µM.
For the compound `CCCCCCCCCCCCOC1C(C(COC2OC(C(O)CO)C3OC(C)(C)OC23)OC(=O)Nc2ccc([N+](=O)[O-])cc2)OC2OC(C)(C)OC21` (stereo not drawn), the GI50 in the assay with HT29 colon was 2.57 µM; with IGROV1 ovarian, 2.34 µM; in the assay on MALME-3M melanoma, 3.16 µM; in the assay with NCI-H522 lung, 1.92 µM; in the assay on NCI/ADR-RES ovarian it was 12.3 µM; in the assay on OVCAR-3 ovarian, 1.65 µM. Moreover, the GI50 with SF-268 CNS was 7.34 µM; in the assay with TK-10 renal it was 2.68 µM; in the assay on U251 CNS, 1.85 µM; with UACC-257 melanoma, 3.53 µM. In addition, the TGI stood at 7.94 µM with HT29 colon; 5.73 µM in the assay with IGROV1 ovarian; 9.64 µM in the assay with MALME-3M melanoma; 3.9 µM in the assay on NCI-H522 lung; 26.5 µM with NCI/ADR-RES ovarian; 3.14 µM with OVCAR-3 ovarian. The TGI is 22.1 µM in the assay on SF-268 CNS, 7.29 µM in the assay with TK-10 renal, 3.59 µM in the assay on U251 CNS and 9.35 µM in the assay on UACC-257 melanoma.
For `NC(=O)NOCC1NC(=O)NC1=O` (stereo not drawn), the TGI in the assay on HT29 colon, in the assay with IGROV1 ovarian, with MALME-3M melanoma, with NCI-H522 lung, with NCI/ADR-RES ovarian and in the assay with OVCAR-3 ovarian was > 100 µM throughout. Also, the TGI in the assay on SF-268 CNS, with TK-10 renal, with U251 CNS and in the assay on UACC-257 melanoma was > 100 µM each time.

Source of the values: PubChem BioAssay (NCI).
